Reference: patent publication EP4813979A1, “COMPOUND FOR EGFR PROTEIN DEGRADATION AND USE THEREOF” (TYK Medicines, Inc., priority 2023, dated 2025)
Where two headings read alike, the source gives them in different places.

Legend:
[1] = target: EGFR in Baf3-19del-T790M-C797S (Homo sapiens, UniProt P00533, C797S/DEL746-750/T790M); assay: EGFR PROTAC HTRF experiment (total EGFR degradation); format: cell-based
Experimental: (§1) [table] Among them, B[…] -C797S (abbreviated as Baf3-DTC) is a stable Ba/F3 clone expressing exogenous EGFR gene bearing T790M, C797S and […] triple amino acid mutations, purchased from KYinno; Baf3-L858R-T790M - C797S (abbreviated as Baf3-LTC) is a stable Ba/F3 clone expressing exogenous EGFR gene bearing […], T790M, C797S triple mutations, purchased from KYinno. [table] [table] Dilutded Eu and d2 antibodies 2μl per well with detection buffer 20-fold. Then mixed the two antibody vials thoroughly. [table] Opened EnVision , locate the HTRF program, configured the board, and then read […]. The fitted curve, DC50 and Dmax of this compound could be generated using GraphPad Prism .

[2] = target: EGFR in Baf3-L858R-T790M-C797S (Homo sapiens, UniProt P00533, C797S/L858R/T790M); assay: as above; format: cell-based
Experimental: as §1

[3] = test system: PC-9; assay: Cell anti-proliferation experiment (CTG); format: cell-based; details: Homo sapiens, PC-9 (EGFR exon 19 deletion), class symbol
Procedure, shortened: (§2)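 PC-9 (EGFR exon 19 del), H1975 (T790M/L858R), A431 (wild-type EGFR) and a Ba/F3 clone stably expressing mutant EGFR were seeded at 1500-2500 cells/well, left 24 h, then treated in triplicate with 1:4 dilutions up to 10,000 nM for 72 h. CTG luminescence was normalised to 0.1% DMSO and blank medium; IC50 from curve fit.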

[4] = test system: A431; assay: Cell anti-proliferation experiment (CTG); format: cell-based; details: Homo sapiens, A431 (wild-type EGFR), class symbol
Procedure, shortened: as §2

[5] = test system: H1975; assay: Cell anti-proliferation experiment (CTG); format: cell-based; details: Homo sapiens, H1975 (EGFR T790M/L858R), class symbol
Procedure, shortened: as §2

[6] = test system: HCC827; assay: Cell anti-proliferation experiment (CTG); format: cell-based; details: Homo sapiens, HCC827 (exon 19 deletion), class symbol
Procedure, shortened: (§3)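 Cells were seeded at 1500–2500/well and dosed after ~24 h with compound in a 1:4 dilution series up to 10,000 nM, in triplicate. Viability was read by CTG luminescence after 72 h, normalized to the 0.1% DMSO control and medium blank, and IC50 was obtained by curve fitting.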

[7] = test system: A549; assay: Cell anti-proliferation experiment (CTG); format: cell-based; details: Homo sapiens, A549 (wild-type EGFR), class symbol
Procedure, shortened: as §3

[8] = Pharmacokinetic test of CD-1 mice; format: in vivo; set-up: AUC(0-t) / AUC(0-inf): concentration or dose not given beside the values; details: male CD-1 mice, single oral gavage (PO), plasma; for AUC(0-inf) / AUC(0-t) / Cmax / MRT last / Tmax: mouse
Experimental: Plasma was collected from male CD-1 mice after a single gavage administration of the test substance. The plasma was then analyzed to calculate pharmacokinetic parameters.
The solvent is 5% DMSO + 10% Solutol HS-15 + 85% Saline.
Formulation preparation process: Accurately weighed the compound powder, added appropriate volumes of DMSO, Solutol and physiological saline in sequence, and vortexed sonicate at each step to finally form a homogeneous formulation solution.
Experimental animals were housed in the SPF-grade animal facility of Suzhou Xihua New Drug Development Co., Ltd. (License No.: SYXK(Su)2021-0019). Animals were fed normally for at least 3 days after purchase before the experiment, and each mouse was marked with a tail tag. Animals in the oral administration group were fasted overnight the day before administration, and were resumed feeding 4 hours later, with free access to water. Table 4. Sources and Number of Experimental Animals […]
Before administration, checked the state of the administration formulation and ensured its homogeneity by vortexing, stirring or shaking. Calculated the theoretical administration volume for each CD-1 mouse in each group according to the following formula. Theoretical administration volume (mL); = (Dose (mg⋅kg^−1))/(formulation concentration (mg⋅mL^−1)) × animal body weight (kg) [formula]
Table 5 Sample Collection Information
The collected blood was placed in test tubes containing the anticoagulant EDTA-K2 (15 % EDTA-K2 solution), stored on moist ice, and centrifuged within 45 min (1,500 g, 2-8 °C, 10 min). Plasma was then collected. The plasma was stored in pre-chilled centrifuge tubes, flash-frozen on dry ice, and subsequently stored in an ultra-low temperature freezer at -60 °C or lower until shipment.
(§4) A quantitative detection method for the analyte was established using Shimadzu liquid chromatography and Triple Quad™ 6500+AB mass spectrometry. The concentration of the parent drug in plasma was analyzed. The analytical results were controlled for variation using quality control samples, with the accuracy of the quality control samples expected to be between 80% and 120%.
(§5) The main pharmacokinetic parameters were calculated using a non-compartmental model in Winnonlin Phoenix software. These parameters included the area under the curve (AUC(0-t) and AUC(0-∞)), elimination half-life (T1/2), maximum plasma concentration (Cmax ), and time to reach maximum plasma concentration (Tmax).

[9] = test system: Baf3-L858R-T790M - C797S (Baf3-LTC); assay: Cell anti-proliferation experiment (CTG); format: cell-based; details: class symbol
Procedure, shortened: as §2

[10] = test system: Baf3-19del- T790M -C797S (Baf3-DTC); assay: Cell anti-proliferation experiment (CTG); format: cell-based; details: class symbol
Procedure, shortened: as §2

[11] = Pharmacokinetic tests in male SD rats; format: in vivo; details: oral gavage (po), 10 mg/kg, plasma; for AUC(0-inf) / AUC(0-t) / Cmax / MRT last / Tmax: rat
Experimental: Three healthy adult male SD rats, 6-8 weeks old, weighing 200-300 grams.
EDTA-Na2 anticoagulant, weighed 11.2 g EDTA-Na2 and placed it in a reagent bottle. Added 100 mL physiological saline and shaked to dissolve completely. After preparation, dispensed into 1.5 mL centrifuge tubes, each containing approximately 20 µL, for whole blood sample collection.
Accurately weighed approximately 10 mg the sample to be tested, added 10% of the converted total volume of DMSO to dissolve it, and then slowly added 90% of the total volume of 0.5% MC solvent while stirring. Sonicated and vortex to mix thoroughly to obtain a solution of the preparation that is considered to be homogeneous, with a concentration of 1 mg/mL. Prepared fresh immediately before use.
Piped 0.2 mL the sample into a 1.5 mL centrifuge tube and store at -80°C for analysis of the concentration of the drug solution.
Animals were housed in rat cages and fasted for at least 10 hours starting the day before the experiment, but water was allowed. On the day of the experiment, each animal was weighed and marked on its tail. Blank blood samples were collected before drug administration. Blood was collected via tail vein.
• Route of administration: Oral gavage (po); • Dosage concentration: 1 mg/ml; • Dosage: 10 mg/kg; • Dosage volume: 10 mL/kg; • Procedure: Hold the rat upright with your left hand wearing a bite-proof glove, insert the gavage needle into the throat through the mouth, and insert the needle when feeling no obvious resistance. Then inject the drug into the stomach.
Whole blood (0.1-0.2 ml) was collected from test animals at 0.5 h, 1 h, 2 h, 4 h, 6 h, 8 h, 12 h, and 24 h after drug administration. The samples were placed in EDTA-Na 2 anticoagulant tubes, inverted 3-4 times to mix, and centrifuged at 4°C, 2000 g for 5 min to separate the supernatant plasma. The plasma was promptly transferred to -80°C for storage until analysis. Blood was collected via tail vein.
as §4
as §5, with “(Tmax).The results are shown in Table 3.” for “(Tmax).”

[12] = read-out: Baf3-DTC DC50; Baf3-DTC, incubated 16 hours, HTRF total EGFR
[13] = read-out: Baf3-LTC DC50; Baf3-LTC, incubated 16 hours, HTRF total EGFR
[14] = Baf3-DTC, incubated 16 hours, HTRF total EGFR; read-out: Baf3-DTC DC50
[15] = Baf3-DTC, incubated 16 hours, HTRF total EGFR; read-out: Baf3-DTC Dmax
[16] = Baf3-LTC, incubated 16 hours, HTRF total EGFR; read-out: Baf3-LTC DC50
[17] = Baf3-LTC, incubated 16 hours, HTRF total EGFR; read-out: Baf3-LTC Dmax

Sequence of EGFR in Baf3-L858R-T790M-C797S (P00533 25-1210 T790M/C797S/L858R): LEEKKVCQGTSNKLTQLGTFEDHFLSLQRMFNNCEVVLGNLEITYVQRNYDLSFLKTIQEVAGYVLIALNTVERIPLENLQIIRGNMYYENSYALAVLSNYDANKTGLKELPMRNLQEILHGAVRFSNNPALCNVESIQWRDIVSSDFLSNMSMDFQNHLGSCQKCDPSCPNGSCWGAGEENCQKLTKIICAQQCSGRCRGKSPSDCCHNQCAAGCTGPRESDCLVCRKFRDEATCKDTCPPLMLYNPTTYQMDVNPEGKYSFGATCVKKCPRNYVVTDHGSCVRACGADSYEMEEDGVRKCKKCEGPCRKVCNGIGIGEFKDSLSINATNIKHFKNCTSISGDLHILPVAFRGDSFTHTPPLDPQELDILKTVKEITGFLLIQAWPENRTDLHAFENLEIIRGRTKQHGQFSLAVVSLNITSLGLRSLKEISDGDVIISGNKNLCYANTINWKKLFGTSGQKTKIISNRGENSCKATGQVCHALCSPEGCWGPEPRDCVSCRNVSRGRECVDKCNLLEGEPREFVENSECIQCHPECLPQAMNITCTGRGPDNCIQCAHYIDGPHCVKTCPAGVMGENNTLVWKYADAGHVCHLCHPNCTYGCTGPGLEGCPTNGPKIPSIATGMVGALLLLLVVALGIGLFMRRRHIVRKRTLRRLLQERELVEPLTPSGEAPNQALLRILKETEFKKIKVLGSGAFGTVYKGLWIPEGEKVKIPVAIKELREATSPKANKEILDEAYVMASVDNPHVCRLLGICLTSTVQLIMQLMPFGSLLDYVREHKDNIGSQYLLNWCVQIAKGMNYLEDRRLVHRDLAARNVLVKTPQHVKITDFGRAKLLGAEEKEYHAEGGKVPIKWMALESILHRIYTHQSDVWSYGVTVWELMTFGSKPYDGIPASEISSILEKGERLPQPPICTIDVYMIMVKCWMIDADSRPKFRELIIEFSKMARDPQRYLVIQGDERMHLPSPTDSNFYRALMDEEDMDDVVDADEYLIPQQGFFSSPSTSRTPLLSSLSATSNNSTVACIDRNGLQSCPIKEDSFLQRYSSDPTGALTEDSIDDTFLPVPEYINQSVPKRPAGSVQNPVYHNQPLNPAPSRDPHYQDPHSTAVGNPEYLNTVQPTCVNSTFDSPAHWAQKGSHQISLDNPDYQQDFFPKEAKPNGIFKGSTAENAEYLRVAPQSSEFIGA
Sequence of EGFR in Baf3-19del-T790M-C797S (P00533 with tags, fused parts or gaps DEL746-750/T790M/C797S): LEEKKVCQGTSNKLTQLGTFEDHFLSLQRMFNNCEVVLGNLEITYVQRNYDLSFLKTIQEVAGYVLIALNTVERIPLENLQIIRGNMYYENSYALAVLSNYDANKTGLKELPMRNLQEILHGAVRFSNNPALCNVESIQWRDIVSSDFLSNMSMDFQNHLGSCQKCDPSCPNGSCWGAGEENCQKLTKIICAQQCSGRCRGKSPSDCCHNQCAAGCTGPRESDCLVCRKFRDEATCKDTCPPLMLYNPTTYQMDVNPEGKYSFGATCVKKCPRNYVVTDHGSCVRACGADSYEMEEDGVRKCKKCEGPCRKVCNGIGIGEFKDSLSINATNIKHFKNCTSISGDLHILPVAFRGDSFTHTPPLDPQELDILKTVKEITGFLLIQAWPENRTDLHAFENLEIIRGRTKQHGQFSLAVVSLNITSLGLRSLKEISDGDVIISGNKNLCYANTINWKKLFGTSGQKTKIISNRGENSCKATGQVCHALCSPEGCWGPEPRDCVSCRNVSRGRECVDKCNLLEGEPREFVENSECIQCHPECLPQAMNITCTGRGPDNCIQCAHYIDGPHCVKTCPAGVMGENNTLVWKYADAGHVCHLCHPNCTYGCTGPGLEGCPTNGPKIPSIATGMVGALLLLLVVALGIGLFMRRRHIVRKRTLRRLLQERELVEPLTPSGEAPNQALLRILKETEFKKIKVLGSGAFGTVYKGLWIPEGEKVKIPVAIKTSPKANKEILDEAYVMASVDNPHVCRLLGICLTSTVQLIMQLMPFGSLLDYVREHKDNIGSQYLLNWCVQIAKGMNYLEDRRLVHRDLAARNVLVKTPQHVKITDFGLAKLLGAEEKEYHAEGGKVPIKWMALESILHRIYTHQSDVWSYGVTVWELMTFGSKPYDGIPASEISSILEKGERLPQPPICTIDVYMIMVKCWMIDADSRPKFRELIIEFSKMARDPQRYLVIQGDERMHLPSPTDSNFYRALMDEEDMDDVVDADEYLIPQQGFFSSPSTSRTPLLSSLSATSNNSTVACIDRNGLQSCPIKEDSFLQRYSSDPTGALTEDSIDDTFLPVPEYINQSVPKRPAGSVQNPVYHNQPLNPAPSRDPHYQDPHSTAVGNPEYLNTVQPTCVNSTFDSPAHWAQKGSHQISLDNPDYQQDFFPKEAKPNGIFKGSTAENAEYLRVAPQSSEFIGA

Structure (SMILES)	DC50 [1, 12]	Dmax ([1]; read-out: Baf3-DTC Dmax)	DC50 [2, 13]	Dmax ([2]; read-out: Baf3-LTC Dmax)	IC50 ([3]; 72 hours)	IC50 ([4]; A-431, 72 hours)	IC50 ([5]; NCI-H1975, 72 hours)	IC50 ([6]; 72 hours)	IC50 ([7]; 72 hours)	HL_ [8]	AUC(0-inf) [8]	AUC(0-t) [8]	Cmax [8]	MRT last [8]	Tmax [8]	DC50 [1, 14]	Dmax [1, 15]	DC50 [2, 16]	Dmax [2, 17]	IC50 ([9]; 72 h)	other results
CCc1cc(Nc2ncc(Cl)c(Nc3ccccc3C(=O)NC)n2)c(OC)cc1N1CCN(C(=O)CN2CCC(c3ccc4c(N5CCC(=O)NC5=O)nn(C)c4c3)C(F)(F)C2)CC1 (stereo not drawn) [Comparative Example 1-1, reference compound]	10 to 100 nM	70 to 100%	10 to 100 nM	70 to 100%	100 to 1000 nM	100 to 1000 nM	10 to 100 nM	100 to 1000 nM	10 to 100 nM	2.41 h	14300 ng·h/mL	14300 ng·h/mL	1740 ng/mL	6.06 h	2 h						
CCc1cc(Nc2ncc(Br)c(Nc3ccccc3C(=O)NC)n2)c(OC)cc1N1CCN(C(=O)CN2CCC(c3cc4c(cc3F)c(N3CCC(=O)NC3=O)nn4C)C(F)(F)C2)CC1 (stereo not drawn) [TA-004]										2.67 h	28800 ng·h/mL	28800 ng·h/mL	3170 ng/mL	6.01 h	2 h	100 to 1000 nM	70 to 100%	100 to 1000 nM	70 to 100%	10 to 100 nM	IC50 ([3]; PC-9, 72 h): > 1000 nM; IC50 ([4]; A-431, 72 h): > 1000 nM; IC50 ([10]; 72 h): 10 to 100 nM; IC50 ([5]; NCI-H1975, 72 h): 10 to 100 nM; IC50 ([6]; HCC827, 72 h): > 1000 nM; IC50 ([7]; A549, 72 h): > 1000 nM
CCc1cc(Nc2ncc(Cl)c(Nc3ccccc3P(C)(C)=O)n2)c(OC)cc1N1CCN(C(=O)CN2CCC(c3cc4c(cc3F)c(N3CCC(=O)NC3=O)nn4C)C(F)(F)C2)CC1 (stereo not drawn) [TA-005]										2.28 h	36300 ng·h/mL	36300 ng·h/mL	5970 ng/mL	4.59 h	1 h						
CCc1cc(Nc2ncc(Br)c(Nc3ccccc3P3(=O)CCCC3)n2)c(OC)cc1N1CC2(CCN(C(=O)CN3CCC(c4cc5c(cc4F)c(N4CCC(=O)NC4=O)nn5C)C(F)(F)C3)CC2(F)F)C1 (stereo not drawn) [TB-010]																< 10 nM	70 to 100%	< 10 nM	70 to 100%	10 to 100 nM	IC50 ([3]; PC-9, 72 h): 100 to 1000 nM; IC50 ([4]; A-431, 72 h): > 1000 nM; IC50 ([10]; 72 h): 10 to 100 nM; IC50 ([5]; NCI-H1975, 72 h): < 10 nM; IC50 ([6]; HCC827, 72 h): 10 to 100 nM; IC50 ([7]; A549, 72 h): > 1000 nM; HL [11]: 3.59 h; AUC(0-inf) [11]: 5800 ng·h/mL; AUC(0-t) [11]: 5730 ng·h/mL; Cmax [11]: 482 ng/mL; MRT last [11]: 6.6 h; Tmax [11]: 4 h
CCc1cc(Nc2ncc(Br)c(Nc3ccccc3P(C)(C)=O)n2)c(OC)cc1N1CCN(C(=O)CN2CCC(c3cc4c(cc3F)c(N3CCC(=O)NC3=O)nn4C)C(F)(F)C2)CC1 (stereo not drawn) [TC-158]	< 10 nM	70 to 100%	< 10 nM	70 to 100%	100 to 1000 nM	> 1000 nM	10 to 100 nM	100 to 1000 nM	> 1000 nM												IC50 ([9]; 72 hours): < 10 nM; IC50 ([10]; 72 hours): < 10 nM; HL [11]: 2.81 h; AUC(0-inf) [11]: 5610 ng·h/mL; AUC(0-t) [11]: 5590 ng·h/mL; Cmax [11]: 533 ng/mL; MRT last [11]: 6.02 h; Tmax [11]: 2.67 h
